Measured values from ChEMBL document CHEMBL3045943, “Novel N-aryl(alkaryl)-2-[(3-R-2-oxo-2H-[1,2,4]triazino[2,3-c]quinazoline-6-yl)thio]acetamides: synthesis, cytotoxicity, anticancer activity, COMPARE analysis and docking” (2013).

What was measured:
Assay type in all cases: functional
[1] = tested on: MCF7; assay: Cytotoxicity against Homo sapiens (human) MCF7 cells assessed as cell growth at 10 uM after 48 hr by SRB assay relative to control; details: MCF7, 48 h, read-out: Activity
[2] = tested on: DU-145; assay: Cytotoxicity against Homo sapiens (human) DU145 cells assessed as cell growth at 10 uM after 48 hr by SRB assay relative to control; details: DU-145, 48 h, read-out: Activity
[3] = tested on: RXF 393; assay: Cytotoxicity against Homo sapiens (human) RXF393 cells assessed as cell growth at 10 uM after 48 hr by SRB assay relative to control; details: RXF 393, 48 h, read-out: Activity
[4] = tested on: 786-0; assay: Cytotoxicity against Homo sapiens (human) 786-0 cells assessed as cell growth at 10 uM after 48 hr by SRB assay relative to control; details: 786-0, 48 h, read-out: Activity
[5] = tested on: OVCAR-8; assay: Cytotoxicity against Homo sapiens (human) OVCAR8 cells assessed as cell growth at 10 uM after 48 hr by SRB assay relative to control; details: OVCAR-8, 48 h, read-out: Activity
[6] = tested on: OVCAR-4; assay: Cytotoxicity against Homo sapiens (human) OVCAR4 cells assessed as cell growth at 10 uM after 48 hr by SRB assay relative to control; details: OVCAR-4, 48 h, read-out: Activity
[7] = tested on: UACC-62; assay: Cytotoxicity against Homo sapiens (human) UACC62 cells assessed as cell growth at 10 uM after 48 hr by SRB assay relative to control; details: UACC-62, 48 h, read-out: Activity
[8] = tested on: SK-MEL-5; assay: Cytotoxicity against Homo sapiens (human) SK-MEL-5 cells assessed as cell growth at 10 uM after 48 hr by SRB assay relative to control; details: SK-MEL-5, 48 h, read-out: Activity
[9] = tested on: MDA-MB-435; assay: Cytotoxicity against Homo sapiens (human) MDA-MB-435 cells assessed as cell growth at 10 uM after 48 hr by SRB assay relative to control; details: MDA-MB-435, 48 h, read-out: Activity
[10] = tested on: LOX IMVI; assay: Cytotoxicity against Homo sapiens (human) LOXIMVI cells assessed as cell growth at 10 uM after 48 hr by SRB assay relative to control; details: read-out: Activity
[11] = tested on: NCI-H460; assay: Cytotoxicity against Homo sapiens (human) NCI-H460 cells assessed as cell growth at 10 uM after 48 hr by SRB assay relative to control; details: NCI-H460, 48 h, read-out: Activity
[12] = tested on: A549; assay: Cytotoxicity against Homo sapiens (human) A549 cells assessed as cell growth at 10 uM after 48 hr by SRB assay relative to control; details: A549, 48 h, read-out: Activity
[13] = tested on: Photobacterium leiognathi; assay: Growth inhibition of Photobacterium leiognathi Sh1 assessed as bio-luminescence at 0.1 mg/ml after 16 to 18 hr by chronic action test relative to control; parameters: scale not given: the % may be the effect or the level left
[14] = tested on: Photobacterium leiognathi; assay: Growth inhibition of Photobacterium leiognathi Sh1 assessed as bio-luminescence at 0.025 mg/ml after 16 to 18 hr by chronic action test relative to control; parameters: scale not given: the % may be the effect or the level left
[15] = tested on: Photobacterium leiognathi; assay: Growth inhibition of Photobacterium leiognathi Sh1 assessed as bio-luminescence at 0.25 mg/ml after 10 min by acute action test relative to control; parameters: scale not given: the % may be the effect or the level left
[16] = tested on: Photobacterium leiognathi; assay: Growth inhibition of Photobacterium leiognathi Sh1 assessed as bio-luminescence at 0.1 mg/ml after 10 min by acute action test relative to control; parameters: scale not given: the % may be the effect or the level left
[17] = tested on: Photobacterium leiognathi; assay: Growth inhibition of Photobacterium leiognathi Sh1 assessed as bio-luminescence at 0.025 mg/ml after 10 min by acute action test relative to control; parameters: scale not given: the % may be the effect or the level left
[18] = tested on: OVCAR-3; assay: Cytotoxicity against Homo sapiens (human) OVCAR3 cells assessed as cell growth at 10 uM after 48 hr by SRB assay relative to control; details: OVCAR-3, 48 h, read-out: Activity
[19] = tested on: U-251; assay: Cytotoxicity against Homo sapiens (human) U251 cells after 48 hr by SRB assay; details: U-251, 48 h
[20] = tested on: SNB-75; assay: Cytotoxicity against Homo sapiens (human) SNB75 cells after 48 hr by SRB assay; details: SNB-75, 48 h
[21] = tested on: HOP-62; assay: Cytotoxicity against Homo sapiens (human) HOP62 cells after 48 hr by SRB assay; details: HOP-62, 48 h
[22] = tested on: TK-10; assay: Cytotoxicity against Homo sapiens (human) TK10 cells assessed as cell growth at 10 uM after 48 hr by SRB assay relative to control; details: TK-10, 48 h, read-out: Activity
[23] = tested on: SK-MEL-2; assay: Cytotoxicity against Homo sapiens (human) SK-MEL-2 cells assessed as cell growth at 10 uM after 48 hr by SRB assay relative to control; details: SK-MEL-2, 48 h, read-out: Activity
[24] = tested on: MDA-MB-231; assay: Cytotoxicity against Homo sapiens (human) MDA-MB-231 cells assessed as cell growth at 10 uM after 48 hr by SRB assay relative to control; details: MDA-MB-231, 48 h, read-out: Activity
[25] = Cytotoxicity against Homo sapiens (human) NCI-ADR-RES cells assessed as cell growth at 10 uM after 48 hr by SRB assay relative to control; details: read-out: Activity
[26] = tested on: MDA-MB-231; assay: Cytotoxicity against Homo sapiens (human) MDA-MB-231 cells after 48 hr by SRB assay; details: MDA-MB-231, 48 h
[27] = tested on: A498; assay: Cytotoxicity against Homo sapiens (human) A498 cells after 48 hr by SRB assay; details: A498, 48 h
[28] = tested on: SW-620; assay: Cytotoxicity against Homo sapiens (human) SW620 cells assessed as cell growth at 10 uM after 48 hr by SRB assay relative to control; details: SW-620, 48 h, read-out: Activity
[29] = tested on: HCT-116; assay: Cytotoxicity against Homo sapiens (human) HCT116 cells assessed as cell growth at 10 uM after 48 hr by SRB assay relative to control; details: HCT-116, 48 h, read-out: Activity
[30] = tested on: SF-539; assay: Cytotoxicity against Homo sapiens (human) SF539 cells assessed as cell growth at 10 uM after 48 hr by SRB assay relative to control; details: SF-539, 48 h, read-out: Activity
[31] = tested on: NCI-H522; assay: Cytotoxicity against Homo sapiens (human) NCI-H522 cells assessed as cell growth at 10 uM after 48 hr by SRB assay relative to control; details: NCI-H522, 48 h, read-out: Activity
[32] = tested on: U-251; assay: Cytotoxicity against Homo sapiens (human) U251 cells assessed as cell growth at 10 uM after 48 hr by SRB assay relative to control; details: U-251, 48 h, read-out: Activity
[33] = tested on: SNB-75; assay: Cytotoxicity against Homo sapiens (human) SNB75 cells assessed as cell growth at 10 uM after 48 hr by SRB assay relative to control; details: SNB-75, 48 h, read-out: Activity
[34] = tested on: Photobacterium leiognathi; assay: Growth inhibition of Photobacterium leiognathi Sh1 assessed as bio-luminescence at 0.25 mg/ml after 16 to 18 hr by chronic action test relative to control; parameters: scale not given: the % may be the effect or the level left

O=C(CSc1nc2ccccc2c2nc(=O)c(-c3ccccc3)nn12)NCc1ccccc1F
growth at 10 µM [1]: 38.2% | growth at 10 µM [2]: 35.9% | growth at 10 µM [3]: 42.3% | growth at 10 µM [4]: 16.5% | growth at 10 µM [5]: 36.2% | growth at 10 µM [6]: -39.5% | growth at 10 µM [7]: 41.2% | growth at 10 µM [8]: 47.3% | growth at 10 µM [9]: 49.6% | growth at 10 µM [10]: 50.5% | growth at 10 µM [11]: 5.5% | growth at 10 µM [12]: 26% | Activity [13]: 75% | Activity [14]: 90.6% | Activity [15]: 100% | Activity [16]: 125% | Activity [17]: 118.8% | growth at 10 µM [18]: 9.5% | GI50 [19]: 2.69 µM | LC50 [19]: > 100 µM | TGI ([19]; read-out: pTGI (converted)): > 100 µM | GI50 [20]: 1.82 µM | LC50 [20]: > 100 µM | TGI ([20]; read-out: pTGI (converted)): > 100 µM | GI50 [21]: 2.82 µM | LC50 [21]: > 100 µM | TGI ([21]; read-out: pTGI (converted)): > 100 µM | growth at 10 µM [22]: 46.3% | growth at 10 µM [23]: 50.3% | growth at 10 µM [24]: 48.9% | growth at 10 µM [25]: 38.8% | GI50 [26]: 2.69 µM | CC50 ([26]; read-out: pLC50 (the source's name) (converted)): > 100 µM | TGI ([26]; read-out: pTGI): > 100 µM | GI50 [27]: 1.29 µM | LC50 [27]: > 100 µM | TGI ([27]; read-out: pTGI (converted)): > 100 µM | growth at 10 µM [28]: 31% | growth at 10 µM [29]: 34.5% | growth at 10 µM [30]: 20.9% | growth at 10 µM [31]: 34.5% | growth at 10 µM [32]: 2.29% | growth at 10 µM [33]: 15.8% | Activity [34]: 54.5%
